We go through 4 compounds from BindingDB's records for doi:10.1016/s0960-894x(02)00699-6 (Sapienza University of Rome, 2002).

Each structure is given as a SMILES string.

The assay concerns the target Diamine oxidase [copper-containing] (Sus scrofa). The assay is described as follows: Inhibitory activity against Swine kidney diamine oxidase (SKDAO).
In general, Ki refers to a dissociation constant, usually derived from enzyme kinetics or from competition with a known ligand. A low value points to a stronger hold on the target. On to `CC(=O)N1N=C(c2ccc(O)cc2O)CC1c1cccc(C)c1` (centres undefined) [1-[3-(2,4-Dihydroxy-phenyl)-5-m-tolyl-4,5-dihydro-pyrazol-1-yl]-ethanone], for which the Ki was 25 µM.

With `CC(=O)N1N=C(c2ccc(O)cc2O)CC1c1ccccc1C` (centres undefined) [1-[3-(2,4-Dihydroxy-phenyl)-5-o-tolyl-4,5-dihydro-pyrazol-1-yl]-ethanone], the Ki amounted to 100 µM.

The compound `CC(=O)N1N=C(c2ccccc2O)CC1c1ccccc1C` (centres undefined) [1-[3-(2-Hydroxy-phenyl)-5-o-tolyl-4,5-dihydro-pyrazol-1-yl]-ethanone] displayed a Ki of 5.5 µM.

As to `CC(=O)N1N=C(c2ccccc2O)CC1c1cccc(C)c1` (centres undefined) [1-[3-(2-Hydroxy-phenyl)-5-m-tolyl-4,5-dihydro-pyrazol-1-yl]-ethanone], the affinity corresponds to a Ki of 8 µM.
